Data: patent publication US12071586B2, “Composition and method for controlling bacteria in formations” (priority 2017, dated 2024)

Key:
[1] = test system: SRB; assay: Hydrogen sulfide inhibition in actual produced water (Eagle Ford shale, diluted to 3%), H2S by Draeger tubes; type: cell-based, sulfate-reducing bacteria (SRB); conditions: 20 ppm MoO4 alone, actual produced water (Example 7)
Experimental: (§1) Hydrogen sulfide inhibition was tested in mock-produced water approximating water used in hydraulic fracturing operations and was made to a total dissolved solids concentration of 3% with a mixture of instant ocean and NaCl salts. The water was supplemented with nutrients and sulfate to allow SRB to metabolize and create H2S. The water was spiked with SRB and then treated with the various treatment conditions noted below in Table 3 and sealed. Treatment conditions were: Control: No biocide or nitrate.
(§2) H2S was measured at intervals using H2S detecting Draeger tubes. Dissolved H2S was released into the gas phase with the addition of hydrochloric acid so that H2S could be measured with the Draeger tubes to get a complete reading of all H2S produced during the course of the example.
Samples were prepared in accordance with Example 4, except that actual produced water sourced from the Eagle Ford shale that was diluted to 3% using deionized water was used in the samples.
Example 7 was performed in accordance with Example 6 using actual produced water. Samples of the following were mixed with the […].

[2] = test system: SRB; assay: Hydrogen sulfide inhibition in mock-produced water spiked with SRB, H2S by Draeger tubes; type: cell-based, sulfate-reducing bacteria (SRB); conditions: 20 ppm MoO4 alone, mock produced water (Example 6)
Experimental: as §1, §2
Example 6 was performed in accordance with Example 4 using mock produced water. Samples of the following were mixed with the mock produced water.

[O]=[Mo](=[O])([O-])[O-] [MoO4, molybdate]
Total H2S [1]: 3188 ppm | Total H2S [2]: 1974 ppm
